Tested on: 843126-344-R-J1-PDC complex spheroid viability
Test: Anticancer human tumor 843126-344-R-J1-PDC patient-derived melanoma cell line growth inhibition [POLQ]
Conditions: for IC50: curve of first compound; for viability, T/C: stronger effect = lower value
Summary of the method: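 Patient-derived tumour cells were co-cultured with HUVEC and mesenchymal stem cells as multicellular spheroids at 37 °C. They were treated with POLQ inhibitors (novobiocin, ART-558, RP6685) alone or combined with other agents. Top concentrations were at or near clinical Cmax (otherwise 10 microM; SN-38 at 1 microM), decreasing in half-log steps.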

[1] = second compound 0.0316 µM, first compound 0.0316 µM
[2] = second compound 0.0316 µM, first compound 0.1 µM
[3] = second compound 0.0316 µM, first compound 0.316 µM
[4] = second compound 0.0316 µM, first compound 1 µM
[5] = second compound 0.0316 µM, first compound 3.16 µM
[6] = second compound 0.0316 µM, first compound 10 µM
[7] = second compound 0.1 µM, first compound 0.0316 µM
[8] = second compound 0.1 µM, first compound 0.1 µM
[9] = second compound 0.1 µM, first compound 0.316 µM
[10] = second compound 0.1 µM, first compound 1 µM
[11] = second compound 0.1 µM, first compound 3.16 µM
[12] = second compound 0.1 µM, first compound 10 µM
[13] = second compound 0.316 µM, first compound 0.0316 µM
[14] = second compound 0.316 µM, first compound 0.1 µM
[15] = second compound 0.316 µM, first compound 0.316 µM
[16] = second compound 0.316 µM, first compound 1 µM
[17] = second compound 0.316 µM, first compound 3.16 µM
[18] = second compound 0.316 µM, first compound 10 µM
[19] = second compound 1 µM, first compound 0.0316 µM
[20] = second compound 1 µM, first compound 0.1 µM
[21] = second compound 1 µM, first compound 0.316 µM
[22] = second compound 1 µM, first compound 1 µM
[23] = second compound 1 µM, first compound 3.16 µM
[24] = second compound 1 µM, first compound 10 µM
[25] = second compound 3.16 µM, first compound 0.0316 µM
[26] = second compound 3.16 µM, first compound 0.1 µM
[27] = second compound 3.16 µM, first compound 0.316 µM
[28] = second compound 3.16 µM, first compound 1 µM
[29] = second compound 3.16 µM, first compound 3.16 µM
[30] = second compound 3.16 µM, first compound 10 µM
[31] = second compound 10 µM, first compound 0.0316 µM
[32] = second compound 10 µM, first compound 0.1 µM
[33] = second compound 10 µM, first compound 0.316 µM
[34] = second compound 10 µM, first compound 1 µM
[35] = second compound 10 µM, first compound 3.16 µM
[36] = second compound 10 µM, first compound 10 µM
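Wherever viability, T/C is given: spheroids exposed to drugs for seven days before readout.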

C#Cc1c(F)ccc2cc(O)cc(-c3ncc4c(N5CC6CCC(C5)N6)nc(OCC56CCCN5CC(F)C6)nc4c3F)c12 (stereo not given) + Cc1cccc(N(C)C(=O)C2C(O)CCN2c2nc(C)cc(C(F)(F)F)c2C#N)c1
IC50 (second compound 0.0316 µM): > 10 µM | IC50 (second compound 0.1 µM): > 10 µM | IC50 (second compound 0.316 µM): > 10 µM | IC50 (second compound 1 µM): > 10 µM | IC50 (second compound 3.16 µM): > 10 µM | IC50 (second compound 10 µM): > 10 µM | viability, T/C [1]: 88% | viability, T/C [2]: 81.1% | viability, T/C [3]: 79.9% | viability, T/C [4]: 71.3% | viability, T/C [5]: 95.8% | viability, T/C [6]: 74% | viability, T/C [7]: 103% | viability, T/C [8]: 98.6% | viability, T/C [9]: 92.9% | viability, T/C [10]: 76% | viability, T/C [11]: 118% | viability, T/C [12]: 79.6% | viability, T/C [13]: 96.1% | viability, T/C [14]: 105% | viability, T/C [15]: 91.2% | viability, T/C [16]: 80.2% | viability, T/C [17]: 75.4% | viability, T/C [18]: 77.4% | viability, T/C [19]: 77.1% | viability, T/C [20]: 106% | viability, T/C [21]: 82.8% | viability, T/C [22]: 89.9% | viability, T/C [23]: 91.2% | viability, T/C [24]: 79% | viability, T/C [25]: 83.5% | viability, T/C [26]: 80.3% | viability, T/C [27]: 87.3% | viability, T/C [28]: 93.7% | viability, T/C [29]: 82.7% | viability, T/C [30]: 69.8% | viability, T/C [31]: 102% | viability, T/C [32]: 80.1% | viability, T/C [33]: 95.5% | viability, T/C [34]: 85.9% | viability, T/C [35]: 91.6% | viability, T/C [36]: 61.8%

CC1COCCN1c1cc(-c2ccnn2C)c2ccnc(-c3ccn[nH]3)c2n1 (stereo not given) + Cc1cccc(N(C)C(=O)C2C(O)CCN2c2nc(C)cc(C(F)(F)F)c2C#N)c1
IC50 (second compound 0.0316 µM): 1.97 µM | IC50 (second compound 0.1 µM): 1.3 µM | IC50 (second compound 0.316 µM): 2.07 µM | IC50 (second compound 1 µM): 1.58 µM | IC50 (second compound 3.16 µM): 1.66 µM | IC50 (second compound 10 µM): 1.87 µM | viability, T/C [1]: 85.6% | viability, T/C [2]: 77.7% | viability, T/C [3]: 63.8% | viability, T/C [4]: 55.1% | viability, T/C [5]: 50.3% | viability, T/C [6]: 32.7% | viability, T/C [7]: 80.9% | viability, T/C [8]: 67.5% | viability, T/C [9]: 64.2% | viability, T/C [10]: 52.6% | viability, T/C [11]: 42.8% | viability, T/C [12]: 28.4% | viability, T/C [13]: 87.2% | viability, T/C [14]: 92.2% | viability, T/C [15]: 64.7% | viability, T/C [16]: 63.9% | viability, T/C [17]: 43% | viability, T/C [18]: 36.7% | viability, T/C [19]: 88.1% | viability, T/C [20]: 85% | viability, T/C [21]: 68.8% | viability, T/C [22]: 55.6% | viability, T/C [23]: 42.6% | viability, T/C [24]: 33.3% | viability, T/C [25]: 89% | viability, T/C [26]: 82.2% | viability, T/C [27]: 68.7% | viability, T/C [28]: 54.2% | viability, T/C [29]: 44.8% | viability, T/C [30]: 35% | viability, T/C [31]: 82.5% | viability, T/C [32]: 83.5% | viability, T/C [33]: 66% | viability, T/C [34]: 57.6% | viability, T/C [35]: 45.1% | viability, T/C [36]: 33.1%

CCc1cc2c(N3CCc4c(cc(Cn5ccnc5)cc4-c4cn(C)nc4C(F)(F)F)C3=O)cc(C)nc2c(OC)n1 + Cc1cccc(N(C)C(=O)C2C(O)CCN2c2nc(C)cc(C(F)(F)F)c2C#N)c1
IC50 (second compound 0.0316 µM): > 10 µM | IC50 (second compound 0.1 µM): > 10 µM | IC50 (second compound 0.316 µM): > 10 µM | IC50 (second compound 1 µM): > 10 µM | IC50 (second compound 3.16 µM): > 10 µM | IC50 (second compound 10 µM): > 10 µM | viability, T/C [1]: 90.8% | viability, T/C [2]: 92.8% | viability, T/C [3]: 80.9% | viability, T/C [4]: 77.7% | viability, T/C [5]: 72.4% | viability, T/C [6]: 61.9% | viability, T/C [7]: 99% | viability, T/C [8]: 88.5% | viability, T/C [9]: 79% | viability, T/C [10]: 79.9% | viability, T/C [11]: 71.5% | viability, T/C [12]: 64.1% | viability, T/C [13]: 94.3% | viability, T/C [14]: 93.2% | viability, T/C [15]: 82.4% | viability, T/C [16]: 72.3% | viability, T/C [17]: 69.8% | viability, T/C [18]: 62.3% | viability, T/C [19]: 85.4% | viability, T/C [20]: 89.5% | viability, T/C [21]: 77.3% | viability, T/C [22]: 70% | viability, T/C [23]: 75.5% | viability, T/C [24]: 63.8% | viability, T/C [25]: 90.8% | viability, T/C [26]: 86% | viability, T/C [27]: 87.7% | viability, T/C [28]: 70.9% | viability, T/C [29]: 77.8% | viability, T/C [30]: 56.8% | viability, T/C [31]: 92% | viability, T/C [32]: 79.9% | viability, T/C [33]: 80% | viability, T/C [34]: 74.2% | viability, T/C [35]: 82.5% | viability, T/C [36]: 54.4%

CCc1cc2c(N3CCc4c(cc(Cn5ccnc5)cc4-c4cn(C)nc4C(F)(F)F)C3=O)cc(C)nc2c(OC)n1 + COC1C(OC(N)=O)C(O)C(Oc2ccc3c(O)c(NC(=O)c4ccc(O)c(CC=C(C)C)c4)c(=O)oc3c2C)OC1(C)C
IC50 (second compound 0.0316 µM): > 10 µM | IC50 (second compound 0.1 µM): 8.91 µM | IC50 (second compound 0.316 µM): > 10 µM | IC50 (second compound 1 µM): > 10 µM | IC50 (second compound 3.16 µM): > 10 µM | IC50 (second compound 10 µM): > 10 µM | viability, T/C [1]: 103% | viability, T/C [2]: 78% | viability, T/C [3]: 89.6% | viability, T/C [4]: 74.5% | viability, T/C [5]: 74.3% | viability, T/C [6]: 59.8% | viability, T/C [7]: 90.6% | viability, T/C [8]: 87.1% | viability, T/C [9]: 89% | viability, T/C [10]: 81.1% | viability, T/C [11]: 64.6% | viability, T/C [12]: 48.4% | viability, T/C [13]: 96.2% | viability, T/C [14]: 80.6% | viability, T/C [15]: 72.4% | viability, T/C [16]: 68.2% | viability, T/C [17]: 74.2% | viability, T/C [18]: 56.4% | viability, T/C [19]: 76.9% | viability, T/C [20]: 67.4% | viability, T/C [21]: 69.4% | viability, T/C [22]: 68.5% | viability, T/C [23]: 72.4% | viability, T/C [24]: 71.3% | viability, T/C [25]: 91.1% | viability, T/C [26]: 77.4% | viability, T/C [27]: 76.9% | viability, T/C [28]: 62.5% | viability, T/C [29]: 72.7% | viability, T/C [30]: 61.8% | viability, T/C [31]: 82.1% | viability, T/C [32]: 96.1% | viability, T/C [33]: 84.2% | viability, T/C [34]: 66.2% | viability, T/C [35]: 58.5% | viability, T/C [36]: 62.6%

O=C(Nc1ccc(O)c(NS(=O)(=O)c2ccc(F)cc2)c1)c1ccc(-c2ccccc2)cc1 + Cc1cccc(N(C)C(=O)C2C(O)CCN2c2nc(C)cc(C(F)(F)F)c2C#N)c1
IC50 (second compound 0.0316 µM): > 10 µM | IC50 (second compound 0.1 µM): > 10 µM | IC50 (second compound 0.316 µM): > 10 µM | IC50 (second compound 1 µM): > 10 µM | IC50 (second compound 3.16 µM): > 10 µM | IC50 (second compound 10 µM): > 10 µM | viability, T/C [1]: 90% | viability, T/C [2]: 95.2% | viability, T/C [3]: 93.6% | viability, T/C [4]: 90.3% | viability, T/C [5]: 99.6% | viability, T/C [6]: 70.8% | viability, T/C [7]: 98.2% | viability, T/C [8]: 94.5% | viability, T/C [9]: 84.1% | viability, T/C [10]: 83.6% | viability, T/C [11]: 96.5% | viability, T/C [12]: 75% | viability, T/C [13]: 86.4% | viability, T/C [14]: 88.2% | viability, T/C [15]: 103% | viability, T/C [16]: 99.2% | viability, T/C [17]: 84.8% | viability, T/C [18]: 70.2% | viability, T/C [19]: 95.7% | viability, T/C [20]: 88.1% | viability, T/C [21]: 96.6% | viability, T/C [22]: 99.9% | viability, T/C [23]: 92.4% | viability, T/C [24]: 72.6% | viability, T/C [25]: 97.5% | viability, T/C [26]: 97.7% | viability, T/C [27]: 89% | viability, T/C [28]: 90.6% | viability, T/C [29]: 84.6% | viability, T/C [30]: 69% | viability, T/C [31]: 92.2% | viability, T/C [32]: 87.4% | viability, T/C [33]: 89.2% | viability, T/C [34]: 85.5% | viability, T/C [35]: 93.5% | viability, T/C [36]: 62.5%
